Test results: patent publication US7608716B2, “Pyrazolonaphthyridine derivative” (Aska Pharmaceutical Co., Ltd., priority 2002, dated 2009)

How the values were obtained:
CYP3A4 = target: T1, CYP3A4 (Homo sapiens, UniProt P08684); assay: Inhibition of drug-metabolizing enzyme CYP3A4 (CYP3A4/BFC kit); format: in vitro ADME; settings: CYP3A4-expressing microsomes, BFC substrate, 37° C., 30 minutes; read-out: Inhibition of Drug-Metabolizing Enzymes (IC50; μM) CYP3A4
T1 construct: purchased BD Biosciences, NJ, USA; host or cells: CYP3A4-expressing system microsomes
Experimental: The inhibitory effect on CYP2D6 and CYP3A4 was determined using High Throughput Inhibitor Screening Kits: CYP2D6/AMMC and CYP3A4/BFC (both from BD Biosciences, NJ, USA). Briefly, each of NADPH regenerating systems, cofactors, and test compounds was dispensed into 96-well plates, followed by addition of each of fluorescent substrates, AMMC (CYP2D6) or BFC (CYP3A4). To each well were added CYP2D6-expressing system microsomes or CYP3A4-expressing system microsomes, and the plates were incubated at 37° C. for 30 minutes, and then read for fluorescent signals (CYP2D6: ex=390 nm, em=460 nm; CYP3A4: ex=409 nm, em=538 nm wherein excitation wavelength: ex and emission wavelength: em). Thus, each inhibitory efficacy on enzymes CYP2D6 and CYP3A4 was determined. Roflumilast was used for the reference compound in this assay.

rats = assay: Toxicology study (2-weeks administration to rats); format: in vivo; settings: oral, 1, 5, or 25 mg/5 ml/kg
Experimental: Each compound of the present invention (Example Nos. 9 and 33) was administered orally to rats (6 animals per group) as a test compound. […] The test compound was suspended in 0.5% CMC-Na solution and given orally to the animal at a dose of 1, 5, or 25 mg/5 ml/kg in a forced manner.

TNF-α production = assay: Inhibition of TNF-α production in galactosamine- and LPS-stimulation; format: in vivo; settings: Mus musculus; C3H/HeN mice, oral, 1 hour before galactosamine/LPS i.v.; serum TNF-α by ELISA 1 hour later; read-out: Inhibition of TNF-α production ED50: mg/kg orally
Experimental: A suspension of each test compound in 0.5% CMC-Na solution was administered orally to C3H/HeN mice at a dose of 0.10 to 10 mg/kg. One hour later, the animals received intravenously galactosamine at a dose of 800 mg/kg and LPS at a dose 5 μg/kg to raise the induction of TNF-α production. One hour later after the galactosamine- and LPS-administration, amounts of TNF-α in serum samples were measured by ELISA, and ED50 was obtained. Roflumilast and SB207499 were used for the reference compounds in this assay.

[1] = test system: T2, PDE IV isozymes separated from U937 culture cells; assay: PDE IV inhibition ([3H]-cAMP hydrolysis); format: biochemical; settings: cAMP 1 μM substrate, 30° C., 20 minutes
T2 construct: PDE IV isozymes as used herein were separated from U937 culture cells by using an anion exchange chromatography
Experimental: PDE IV isozymes as used herein were separated from U937 culture cells by using an anion exchange chromatography. Type IV PDE isozyme was admixed with ethylene glycol (EG) to adjust the final EG concentration to 30%, then stored at −20° C. and diluted when used. The enzymatic activity for PDE IV was measured using cAMP as a substrate.
Each test compound was dissolved in DMSO to adjust the final concentration to 1% (2.5 μl/tube).
Incubation Buffer Solution (pH7.5):
• Tris-HCl (50 mM), magnesium chloride (6 mM), dithiothreitol (2.5 mM), 5-nucleotidase (4 μg/ml), bovine serum albumin (0.23 mg/ml), and cAMP (1 μM).
A mixture of the aforementioned test compound solution and the buffer solution was incubated at 30° C. for 20 minutes. The reaction was quenched by admixing with 1 ml of anion exchange resin slurry (AG1-X8, 200-400 meshes, chloride form; Bio-Rad) to absorb unreacted substrates. After the reaction stopped, the mixture was centrifuged at 800×g for 10 minutes, and the resulting supernatant was collected with vials in 250 μl aliquots. To each vial was added 5 ml of ACS-II (scintillator, Amersham). The radioactivity was measured with a liquid scintillator counter for [^3H]-adenosine and set as the PDE IV activity.

[2] = test system: lung eosinophil infiltration; assay: Inhibition of lung eosinophil infiltration (OVA-sensitized, BALF); format: in vivo, Hartley guinea-pigs; settings: Cavia porcellus, guinea-pigs, oral, 1 hour before OVA inhalation, BALF eosinophils at 24 hours, read-out: Inhibition of Lung Eosinophil Infiltration ED50: mg/kg orally
Experimental: Hartley guinea-pigs were sensitized by inhaling twice 1% ovalbumin (OVA) in a physiological saline for 10 minutes with a nebulizer (Atom Medical Corporation, Japan) at an interval of 1 week. The animals were orally given a suspension of test compounds at a dose of 0.03 to 3 mg/2 mL/kg one week after the final sensitization. One hour later, the animals were exposed to antigens by inhalation of 2% OVA in a physiological saline for 5 minutes with a nebulizer. Thirty minutes before the antigen challenge, the animals were intraperitoneally pretreated with pyrilamine at a dose of 10 mg/kg to avoid fatality due to anaphylactic shock. Bronchoalveolar lavage fluid (BALF) samples were collected 24 hours after the exposure by inhalation of antigens, and eosinophils were counted.

T1 sequence (P08684 whole entry): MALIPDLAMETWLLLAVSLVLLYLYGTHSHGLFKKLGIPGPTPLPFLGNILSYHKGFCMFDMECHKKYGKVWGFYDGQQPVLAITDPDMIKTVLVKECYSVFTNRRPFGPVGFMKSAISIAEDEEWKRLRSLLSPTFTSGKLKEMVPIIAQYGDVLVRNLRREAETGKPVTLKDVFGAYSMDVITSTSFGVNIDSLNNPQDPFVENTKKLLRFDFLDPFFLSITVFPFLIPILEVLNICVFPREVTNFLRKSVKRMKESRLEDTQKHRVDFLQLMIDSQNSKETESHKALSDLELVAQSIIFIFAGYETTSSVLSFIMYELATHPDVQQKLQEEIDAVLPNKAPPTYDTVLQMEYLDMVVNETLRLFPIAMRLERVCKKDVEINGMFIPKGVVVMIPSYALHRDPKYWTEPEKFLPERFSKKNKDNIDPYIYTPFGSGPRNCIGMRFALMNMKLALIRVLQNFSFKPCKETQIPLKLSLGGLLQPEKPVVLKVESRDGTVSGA

Compound | IC50 (CYP3A4) [µM] | Abnormality in other parameters (rats) | Body weight gain (rats) | Mortality (rats) | ED50 (TNF-α production) [mg/kg] | IC50 [1] [µM] | ED50 [2] [mg/kg]
O=c1c2c(Cc3ccccc3)n[nH]c2c2cccnc2n1-c1ccccc1 [Example No. 9, 3-benzyl-5-phenyl-1H-pyrazolo[4,3-c][1,8]naphthyridin-4 (5H)-one] | 8.5 | no clear abnormality was observed | No significant reduction of body weight gains was observed | None of the animals were died | 0.22 | 0.084 | < 0.03
O=c1c2c(Cc3ccc(F)cc3)n[nH]c2c2cccnc2n1-c1ccccc1 [Example No. 33, 3-(4-fluorobenzyl)-5-phenyl-1H-pyrazolo[4,3-c][1,8]naphthyridin-4 (5H)-one] | 6.2 | no clear abnormality was observed | No significant reduction of body weight gains was observed | None of the animals were died | 0.1 | 0.068 | 0.03
